Measured values from ChEMBL document CHEMBL1151357, “Inhibition of Plant Growth by Phenethylamines and Tetrahydroisoquinolines” (1981).
The source made the active and inactive calls. No cut-off for these calls is given here.

What was measured:
[1] = tested on: Phaseolus vulgaris; assay: Growth inhibition of pinto bean plants assessed as inhibition of second inter node elongation at 50 ug after 4 days relative to control; assay type: functional
[2] = tested on: Phaseolus vulgaris; assay: Growth inhibition of pinto bean plants assessed as inhibition of second inter node elongation at 150 ug after 4 days relative to control; assay type: functional
[3] = tested on: Phaseolus vulgaris; assay: Growth promoting activity in pinto bean plants at =>150 ug after 4 days; assay type: functional, organism-based
[4] = tested on: Phaseolus vulgaris; assay: Phytotoxicity against pinto bean plants assessed as induction of necrosis at 50 ug after 4 days; assay type: functional, organism-based
[5] = tested on: Phaseolus vulgaris; assay: Phytotoxicity against pinto bean plants assessed as induction of necrosis at 150 ug after 4 days; assay type: functional, organism-based
[6] = tested on: Sorghum bicolor; assay: Growth inhibition of Rio sorghum seedlings assessed as shoot growth from seed coat to tip of second leaf at 1 mg/ml after 4 days; assay type: functional

| Compound | inhibition (INH) [1] [%] | inhibition (INH) [2] [%] | Activity [3] | Activity [4] | Activity [5] | Activity [6] [mm] |
| --- | --- | --- | --- | --- | --- | --- |
| Cl.NCCc1cc(O)c(O)cc1O [OXIDOPAMINE HYDROCHLORIDE] | 26 | 26 |  |  |  |  |
| O=C(O)C1NCCc2cc(O)c(O)cc21 (stereo unspecified) | 26 | 26 | Active |  |  |  |
| COc1cc2c(cc1O)CCN[C@H]2C.Cl [SALSOLINE HYDROCHLORIDE] | 26 | 51 |  |  |  |  |
| COc1cc([C@@H](O)[C@H](C)N)cc(OC)c1OC.O=C(O)C(O)C(O)C(=O)O | 26 | 0 |  |  |  |  |
| C[N+](C)(C)CCc1ccc(O)cc1.[I-] [CANDICINE IODIDE] | 76 | 76 |  | Active | Active | 33.22 |
| CC1(C(=O)O)NCCc2cc(O)c(O)cc21 (stereo unspecified) | 51 | 0 | Active |  |  |  |
| COc1cc2c(c(O)c1OC)[C@H](C)N(C)CC2.Cl [PELLOTINE HYDROCHLORIDE] | 26 | 0 |  |  |  |  |
| Cl.NCCc1ccc(O)c(O)c1 [DOPAMINE HYDROCHLORIDE] | 26 | 0 |  |  |  | 40.44 |
| COc1ccc2c(c1OC)C(C)N(C)CC2.Cl (racemic) | 26 | 100 |  |  | Active |  |
| COc1cc2c(c(OC)c1OC)[C@H](C)[N+](C)(C)CC2.[I-] | 26 | 51 |  | Active |  |  |
| COc1cc2c(cc1OC)[C@H](C)N(C)CC2.Cl [CARNEGINE HYDROCHLORIDE] | 100 | 100 |  | Active |  |  |
| COc1cc2c(c(O)c1OC)[C@H](C)[N+](C)(C)CC2.[I-] | 0 | 51 |  | Active |  |  |
| COc1cc(CCn2cccc2)cc(OC)c1OC [DECARBOXYPEYONINE] | 51 | 26 |  |  |  |  |
| CN1CCc2cc3c(c(O)c2C1)OCO3.Cl | 0 | 0 | Active |  |  |  |
| COc1cc(CCN)cc(O)c1OC.Cl | 76 | 76 |  | Active | Active |  |
| COc1cc(CCn2cccc2C(=O)O)cc(OC)c1OC [PEYONINE] | 0 |  |  |  |  |  |

| Compound | inhibition (INH) [1] [%] | inhibition (INH) [2] [%] | Activity [3] | Activity [4] | Activity [5] | Activity [6] [mm] |
| --- | --- | --- | --- | --- | --- | --- |
| O=C1CCC2(C(=O)O)c3cc(O)c(O)cc3CCN12 (stereo unspecified) | 26 | 26 | Active |  |  |  |
| COc1cc2c(c(OC)c1OC)CNCC2 |  |  |  | Active | Active |  |
| Cl.NCC(O)c1cccc(O)c1 (stereo unspecified) [NORPHENYLEPHRINE HYDROCHLORIDE] | 26 |  |  |  |  |  |
| COc1c(OC(=O)c2ccccc2)c(OC(=O)c2ccccc2)cc2c1C(C)NCC2.Cl (stereo unspecified) | 26 | 26 |  |  |  |  |
| COc1cc([C@@H](O)[C@H](C)N)cc(OC)c1OC.Cl | 26 | 26 |  |  |  |  |
| COc1cc(CC[N+](C)(C)C)cc(OC)c1OC.[I-] [TRICHOCERINE METHYL IODIDE] | 76 | 76 |  | Active | Active | 36.22 |
| COc1cc2c(c(OC)c1OC)C(C)NCC2.Cl (racemic) | 26 | 51 |  |  |  |  |
| COc1cc([C@@H](O)[C@H](C)N)cc(O)c1OC.O=C(O)C(=O)O | 0 | 26 |  |  | Active |  |
| COc1cc2c(c(OC)c1OC)CNCC2.Cl [ANHALININE HYDROCHLORIDE] | 0 | 100 |  |  |  |  |
| CI.COc1cc2c(c(OC)c1OC)CNCC2 [ANHALININE METHYLIODIDE] | 100 | 100 |  |  |  |  |
| COc1cc([C@@H](O)[C@H](C)N)cc(OC)c1OC.O=C(O)C(=O)O | 26 | 0 |  |  |  |  |
| COc1cc2c(c(OC)c1OC)C(O)CNC2 (stereo unspecified) | 0 | 0 |  |  |  |  |
| COC(=O)c1cccn1CCc1cc(OC)c(OC)c(OC)c1 [PEYONINE METHYL ESTER] | 0 |  |  |  |  |  |
| COc1cc(CCN)cc(OC(=O)c2ccccc2)c1OC.Cl | 51 | 0 |  |  |  |  |
| COc1cc([C@@H](O)[C@H](C)N)cc(OC)c1OC |  |  |  |  | Active |  |
